From PubChem BioAssay AID179 (DTP/NCI, 2004) come the findings set out here.

Several values for one entry are separate records, joined by “and”; a condition that tells them apart may be missing. Equal entries are not always repeated. Activity calls are given as the source filed them.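 The calls were made as follows: active = compounds giving half or more protection of infected cells from virus-caused growth loss, again on retest; inactive = the rest.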 Where a SMILES comes first, the peptide text is derived from it.

This experiment deals with CEM cells HIV-1 protection, formazan growth assay. The experiment can be described thus: NCI AIDS Antiviral Assay. Conditions: for IC50: measured here: growth of uninfected CEM cells. Summed up: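 Human CEM cells, uninfected and HIV-1-infected, received five drug concentrations, and growth was read by soluble formazan assay. Compounds giving at least 50% protection were retested; reproducible 100% protection defined confirmed active.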

With `NC(N)=N/N=C(/CCN1CCCC1)CC(c1ccccc1)c1c(O)c2ccccc2oc1=O` (stereo not given), the EC50 is greater than 38.9 µM and the half-maximal inhibitory concentration (IC50) is greater than 38.9 µM.
As to `CC(=O)N[C@@H]1C(O)CN2C(=O)C(=O)O[C@H](C(O)CO)[C@@H]12` (stereo not given in full), the result was inactive.
As to `COc1c(Cl)cc(C(=Cc2c(F)c(F)c(F)c(F)c2F)c2cc(Cl)c(OC)c(C(=O)O)c2)cc1C(=O)O`, the 50% effective concentration (EC50) is 324 µM and the concentration for half-maximal inhibition (IC50) was 490 µM.
For `COC12OC3(C4OC41)C(C(=O)O[C@H]3CO)C2S(=O)(=O)c1ccccc1` (stereo not given in full) the same measures were greater than 200 µM and greater than 200 µM.
In the case of `O=c1[nH]c2ccccc2c(O)c1-[n+]1ccccc1`, the EC50 is greater than 200 µM and the half-maximal inhibitory concentration (IC50) was greater than 200 µM.
With `Cc1[nH]c(=O)nc(NCCNCCO)c1C(=O)Nc1cccc2cc3ccccc3cc12`, the EC50 is greater than 200 µM and the IC50 was greater than 200 µM.
For the compound `CCOC(=O)C(CC/C=C\c1ccccc1)N1CCC[C@H]1C(=O)OC` (stereo not given in full), the result was inactive.
In the case of `CCCCCNC(=O)C1C(=O)N(CCCCC)C(=O)/C1=N\N` (stereo not given), the EC50 is greater than 12 µM and the half-maximal inhibitory concentration (IC50) was greater than 12 µM.
As for `CC1(C)C(=O)N=C(N)N1C(=O)OCc1ccccc1`, the EC50 is greater than 200 µM and the IC50 is greater than 200 µM.
Consider `CCCOC(=O)NC(C)C(=O)NC(CCC(=O)NC(CCCC(N)C(=O)O)C(=O)NC(C)C(=O)O)C(=O)O` (stereo not given), for which the EC50 is greater than 50.1 µM and the half-inhibitory concentration (IC50) was greater than 50.1 µM.
As to `CC(=O)Oc1ccc2c(oc(=O)c3nc(C)oc32)c1C`, the EC50 is greater than 200 µM and the IC50 turned out to be 145 µM.
For the compound `CN(C)/N=C1/CCC(C(F)(F)F)(C(F)(F)F)O1`, the EC50 was greater than 200 µM and the IC50 was 6.76 µM.
With `CCOC(=O)CNC(=O)C(Cc1ccccc1)NC(=O)C(N)CC(=O)O` (stereo not drawn) (H-Asp-Phe-Gly-OEt; configuration not given here), the EC50 is greater than 200 µM and the IC50 was greater than 200 µM.
With `O=[N+]([O-])/C(C(Cl)=C(Cl)Cl)=C(/Sc1ccccc1)N1CCOCC1`, the EC50 is greater than 200 µM and the IC50 worked out at 2.63 µM.
Regarding `Cn1c(-c2cccs2)cc(-c2cccs2)c1-c1ccsc1`, the EC50 is greater than 20 µM and the IC50 came to 11.2 µM.
For `Cc1cn(CC2=NCCN2)c(=O)[nH]c1=O` the same measures were greater than 200 µM and greater than 200 µM.
The corresponding values for `CN(C)c1ccc(/C=C(\C#N)c2cccc(I)c2)cc1` are greater than 2 µM and 0.129 µM.
For `FC(F)(F)c1ccc2c3c(c4c(c2n1)OCN(Cc1ccc(Cl)cc1Cl)C4)CN(Cc1ccc(Cl)cc1Cl)CO3` the same measures were 0.282 µM and 4.37 µM.
Regarding `CC(=O)Oc1cc2c(c3ncccc13)OC(C)(C)C2`, the EC50 is greater than 200 µM and the IC50 stood at 11 µM.
The corresponding values for `O=C1NC2(CCCCC2)OC12CCCCC2` are greater than 6.46 µM and greater than 6.46 µM.
For `CC(=O)Oc1c(OC(C)=O)c(-c2ccc(O)c(O)c2)c(O)c(O)c1-c1ccc(O)cc1` the same measures were greater than 200 µM and 27.5 µM.
The corresponding values for `Cc1nc2ccc(S(=O)(=O)Nc3ccccn3)cc2c(=O)n1NS(=O)(=O)c1ccccn1` are greater than 200 µM and greater than 200 µM.
`COc1c2occc2c(Cl)c2ccc(=O)oc12`: the EC50 was greater than 70.8 µM and the concentration for half-maximal inhibition (IC50) was found to be 43.7 µM.
For `O=C(O)CCc1nn2c(nc1=O)sc1ccc3ccccc3c12` the same measures were greater than 50.1 µM and greater than 50.1 µM.
In the case of `COc1ccc(/C=C2\SC(c3ccc(OC)cc3)N(NC(=O)Cc3ccccc3)C2=O)cc1` (stereo not given), the EC50 is greater than 15.5 µM and the IC50 is greater than 15.5 µM.
For `CN(C)c1nc2nonc2nc1Nc1ccccc1`, the EC50 was greater than 200 µM and the 50% inhibitory concentration (IC50) is greater than 200 µM.
In the case of `C=C(C)c1ccc2c(c1)C(=O)C[C@@H]1[C@](C)(C#N)CCC[C@]21C`, the EC50 was greater than 200 µM and the concentration for half-maximal inhibition (IC50) came out at 44.7 µM.
The corresponding values for `CCCC[n+]1cc(C(N)=O)cc2ccccc21` are 0.0692 µM and 219 µM.
The corresponding values for `CC1=CCC2(C#N)CCC1C2O` (stereo not given) are greater than 1510 µM and greater than 1510 µM.
Consider `COc1cccc2c1C(=O)c1ccc3cc(CO)cc(O)c3c1C2=O`, for which the EC50 is greater than 200 µM and the IC50 turned out to be 1.12 µM.
The corresponding values for `CCOC(=O)NC(Nc1ccc(F)cc1F)(C(F)(F)F)C(F)(F)F` are greater than 200 µM and greater than 200 µM.
For `COc1ccccc1/C=C1\SC(=S)N(/C=C2\C(=O)Oc3ccccc3C2=O)C1=O` the same measures were greater than 200 µM and 27.5 µM.
Regarding `COc1cc(C=O)c(-c2cc3c(cc2C=O)OCO3)c(OC)c1OC`, the EC50 is greater than 145 µM and the IC50 turned out to be 51.3 µM.
The corresponding values for `COC(=O)C1C(=O)N(C)c2cc(C)c(C)cc2C1(C)C` (stereo not given) are greater than 200 µM and greater than 200 µM.
Turning to `CCC(CO)COC(=O)/C=C/C(=O)OCC(CC)CO` (stereo not given), the outcome was inactive.
`C/C(=N\O)c1sc(-n2nc(-c3ccccc3)cc2-c2ccccc2)nc1C`: the EC50 was greater than 95.5 µM and the concentration for half-maximal inhibition (IC50) amounted to 44.7 µM.
Regarding `O=C(c1ccccc1)c1c(C(=O)c2ccccc2)c(-c2ccccc2)c2c(-c3ccccc3)sc(-c3ccccc3)c2c1-c1ccccc1`, the outcome was inactive.
Take `CCCC(C)(O)CCC(O)(CCC)CCC` (stereo not given): the EC50 is greater than 200 µM and the IC50 is greater than 200 µM.
For the compound `O=c1[nH]c2ccc(Cl)cc2o1`, the EC50 was 182 µM and the IC50 was greater than 200 µM.
For the compound `O=C(C(Cl)=C(Nc1ccccc1)Nc1ccccc1)C(Cl)Cl`, the EC50 is greater than 200 µM and the IC50 turned out to be 19.5 µM.
For `CCCOC(=O)C(C)(C)C(OP(OCCC)OCCC)=C(C)C` the same measures were greater than 200 µM and greater than 200 µM.
For `Brc1ccccc1/C=C\C1(c2ccccc2)OCCO1` the same measures were greater than 200 µM and 4.37 µM.
The corresponding values for `CCCC(=O)c1ccc2c(ccc(=O)n2C)c1` are greater than 112 µM and 102 µM.
On to `CN=C(NC#N)N(Cc1ccccc1)Cc1ccccc1`, for which the EC50 was greater than 129 µM and the 50% inhibitory concentration (IC50) was greater than 100 µM.
In the case of `CCC1C(=O)N(C)c2ccccc21` (stereo not given), the EC50 is greater than 200 µM; the half-inhibitory concentration (IC50) is 117 µM and 33.1 µM.
As for `Clc1ccc(C(=C=C(c2ccccc2)c2ccccc2)c2ccc(Cl)cc2)cc1`, the EC50 was greater than 22.9 µM and the IC50 was greater than 22.9 µM.
For `COC1(C)CCC(OS(C)(=O)=O)CO1` (stereo not given), the EC50 is greater than 200 µM and the IC50 was greater than 200 µM.
Take `CC(C)(C)SS(=O)C(C)(C)C` (stereo not given): the EC50 was greater than 97.7 µM and the half-maximal inhibitory concentration (IC50) is greater than 97.7 µM.
In the case of `CCOC(=O)/C(=C/c1ccc(F)cc1)C(=O)c1ccccc1`, the EC50 is greater than 17.4 µM and the IC50 was greater than 17.4 µM.
In the case of `Oc1cc(O)c2c(c1)O[C@H](c1cc(O)c(O)c(O)c1)[C@H](O)C2`, the EC50 is greater than 200 µM and the half-inhibitory concentration (IC50) was 0.692 µM.
As to `O=C1/C(=C/c2ccc([N+](=O)[O-])cc2)CCCc2ccccc21`, the EC50 is greater than 141 µM and the 50% inhibitory concentration (IC50) is greater than 141 µM.
Take `CCOC(=O)/C(=C\c1cn(C(C)=O)c2ccccc12)P(C)(=O)OCC` (stereo not given): the EC50 was greater than 200 µM and the IC50 was 55 µM.
The corresponding values for `O/N=C/c1ncccc1C1OCCO1` are greater than 257 µM and 141 µM.
In the case of `CC(=O)OCC1OC(n2c(-c3ccc(C)cc3)cc(-c3ccco3)c(C#N)c2=O)C(OC(C)=O)C(OC(C)=O)C1OC(C)=O` (stereo not given), the EC50 was greater than 16.2 µM and the IC50 was greater than 16.2 µM.
As for `Cc1cn(COCC(O)C[N+](=O)[O-])c(=O)[nH]c1=O` (stereo not given), the EC50 was greater than 200 µM and the half-inhibitory concentration (IC50) was greater than 200 µM.
On to `CCOC(=O)/C(=C\c1ccccc1)C(=O)O`, for which the EC50 is greater than 1120 µM and the IC50 came to 240 µM.
Consider `CCOC(=O)CNC(=O)c1[nH]cnc1/N=N/N(C)C`, for which the outcome was inactive and the IC50 was 933 µM.
As to `COc1ccc2nc3cc(Cl)ccc3c(NCCCN3CCN(CCCNc4ccc5nnn6c7ccccc7c(=O)c4c56)CC3)c2c1`, the EC50 is 0.00251 µM and the IC50 came out at 0.00794 µM.
The corresponding values for `CCCc1cc(=O)oc2c3c(c4c(c12)OC(C)(C)C=C4)O[C@H](C)[C@@H](C)[C@@H]3OC(=O)CCl` are 4.57 µM and 15.8 µM.
For `CCOC(=O)/C(=C\c1cccc(Cl)c1)[Se]c1ccccc1` the same measures were greater than 14.1 µM and greater than 14.1 µM.
With `COc1cccc(C2c3cc4c(cc3OC(N3CCOCC3)C2C)OCO4)c1O` (stereo not given), the EC50 was greater than 200 µM and the IC50 amounted to 3.09 µM.
`COc1ccc(N2C(=O)[C@@H]3[C@@H]4CC(C)CC[C@@H]4c4c([nH]c5ccccc45)[C@@H]3C2=O)cc1` (stereo not given in full): the EC50 is greater than 3.31 µM and the IC50 is greater than 3.31 µM.
As for `COc1ccc(-c2nnc3n(C)c4ccccc4n3c2=O)cc1`, the EC50 is greater than 100 µM and the IC50 was greater than 100 µM.
For the compound `Cc1cc(NC(=O)NC/C(Cl)=C/Cl)c2ccccc2n1`, the EC50 was greater than 200 µM and the IC50 amounted to 29.5 µM.
For `COCCCCCCCCCCC(=O)O` the same measures were greater than 200 µM and greater than 200 µM.
On to `OCCNCN(CNCCO)c1nc(N(CNCCO)CNCCO)nc(N(CNCCO)CNCCO)n1`, for which the EC50 was greater than 200 µM and the IC50 is 11.2 µM.
The corresponding values for `O=Cc1c[nH]c2nccnc12` are greater than 380 µM and 372 µM.
The corresponding values for `CNC(=S)/C(=N\Nc1nc[nH]c1C(N)=O)C(N)=S` are greater than 2 µM and 0.955 µM.
The corresponding values for `O=C(O)c1ccccc1-n1nc(C(=O)O)c(N=Nc2ccc(/C=C/c3ccc(N=Nc4c(C(=O)O)nn(-c5ccccc5C(=O)O)c4O)cc3S(=O)(=O)O)c(S(=O)(=O)O)c2)c1O.[Cu+2].[Na+]` are greater than 0.479 µM and greater than 0.479 µM.
Consider `NNC(=O)CSc1nc2ccccc2c(=O)n1N`, for which the EC50 was greater than 200 µM and the IC50 is greater than 200 µM.
Consider `COc1ccc(/C=C2\N=C(NN)N=C2Cl)cc1`, for which the EC50 was greater than 200 µM and the IC50 was greater than 200 µM.
With `Cn1c2ccccc2c(=O)c2c(O)cc3c(c21)C=CC1(CCCC1)O3`, the EC50 was 16.2 µM and the 50% inhibitory concentration (IC50) was greater than 200 µM.
